# PubChem BioAssay (NCI)
#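 Interpolation was linear, between the two tested concentrations surrounding the appropriate level; five concentrations were tested over 48 hours in 96-well plates. TGI: total growth inhibition.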
# How the values were obtained:
# Experiment in all cases: NCI tumour cell line growth inhibition, 48 h
# OVCAR-3 ovarian = system: OVCAR-3 ovarian
# MDA-N = system: MDA-N
# U251 CNS = system: U251 CNS
# SN12C renal = system: SN12C renal
# UO-31 renal = system: UO-31 renal
# SF-539 CNS = system: SF-539 CNS
# CAKI-1 renal = system: CAKI-1 renal
# HOP-92 NSCLC = system: HOP-92 NSCLC
# HCT-116 colon = system: HCT-116 colon
# OVCAR-5 ovarian = system: OVCAR-5 ovarian
SMILES,TGI (OVCAR-3 ovarian),TGI (MDA-N),TGI (U251 CNS),TGI (SN12C renal),TGI (UO-31 renal),TGI (SF-539 CNS),TGI (CAKI-1 renal),TGI (HOP-92 NSCLC),TGI (HCT-116 colon),TGI (OVCAR-5 ovarian)
C/C(=N\O)c1cccc[n+]1Cc1ccccc1,> 100 µM,> 100 µM,> 100 µM,> 100 µM,> 100 µM,> 100 µM,> 100 µM,> 100 µM,> 100 µM,> 100 µM
CC(Oc1ccccc1)C(=O)NNC(=O)OC(C)(C)C (stereo not given),> 100 µM,> 100 µM,> 100 µM,> 100 µM,> 100 µM,> 100 µM,> 100 µM,> 100 µM,> 100 µM,> 100 µM
O=C(NO)NCCCl,> 100 µM,> 100 µM,> 100 µM,> 100 µM,> 100 µM,> 100 µM,> 100 µM,> 100 µM,> 100 µM,> 100 µM
O=c1c(Cc2ccc(Cl)cc2)nnc2sc(-c3ccc(-c4ccc(Cl)cc4Cl)o3)nn12,> 100 µM,> 100 µM,> 100 µM,> 100 µM,> 100 µM,> 100 µM,> 100 µM,> 100 µM,> 100 µM,> 100 µM
C/C(=C/CC[C@]1(CO)CC[C@]2(C)[C@H](CC[C@@H]3[C@@]4(C)CC[C@H](OC5OC(CO)C(O)C(O)C5OC5OC(CO)C(O)C(O)C5O)C(C)(C)[C@@H]4CC[C@]32C)[C@H]1O)CO (stereo not given in full),> 100 µM,> 100 µM,> 100 µM,> 100 µM,> 100 µM,> 100 µM,> 100 µM,> 100 µM,> 100 µM,> 100 µM
C=C1C(=O)O[C@H]2C[C@@H]1[C@@H](O)[C@H](O)[C@@H](C)CCCC(C)=CCC[C@@]2(C)O,28.5 µM,54.6 µM,64.5 µM,72.3 µM,28.5 µM,30.1 µM,22.3 µM,99.5 µM,51.8 µM,51.3 µM
Cc1nc2sc(C(=O)c3ccc(Cl)cc3)c(N)c2c(-c2ccccc2Cl)c1C(=O)Nc1ccccc1,33.9 µM,29.5 µM,37.4 µM,42.1 µM,51.1 µM,30.5 µM,36.8 µM,15.9 µM,26.8 µM,38.6 µM
C=C(Cl)C(Cl)(CCl)CCC(Br)C(C)(C)Br (stereo not given),> 10 µM,> 10 µM,> 10 µM,> 10 µM,> 10 µM,> 10 µM,> 10 µM,> 10 µM,> 10 µM,> 10 µM
COc1ccc(-c2c(-c3ccccc3)c(C)nc3nc(SC)nc(SC)c23)cc1OC,> 100 µM,> 100 µM,28.3 µM,> 100 µM,> 100 µM,23 µM,> 100 µM,48.2 µM,32.2 µM,> 100 µM
CCN1CCC(CNC(=O)c2ccc(N)cc2)N1CC (stereo not given),> 100 µM,> 100 µM,> 100 µM,> 100 µM,> 100 µM,> 100 µM,> 100 µM,> 100 µM,> 100 µM,> 100 µM
Nc1nc(Cl)c(Cl)c(NCC2(O)CCC2)n1,> 100 µM,> 100 µM,> 100 µM,> 100 µM,> 100 µM,> 100 µM,29.6 µM,> 100 µM,> 100 µM,> 100 µM
CCOC(=O)/C=C(\C(=O)OCC)n1cc(C)c(=O)n(Cc2cnnn2COCCOC(C)=O)c1=O,26 µM,44 µM,43.6 µM,36.2 µM,27.5 µM,6.89 µM,8.06 µM,4.27 µM,22.2 µM,43.8 µM
CC(C)=CC(=O)c1[nH]c2ccccc2c1CC(=O)NCCc1cncn1C,> 100 µM,> 100 µM,> 100 µM,> 100 µM,47.6 µM,> 100 µM,> 100 µM,> 100 µM,> 100 µM,> 100 µM
COc1ccccc1C1(c2c(OC)c(=O)c2=O)SCCCS1,> 100 µM,> 100 µM,> 100 µM,> 100 µM,> 100 µM,> 100 µM,> 100 µM,> 100 µM,> 100 µM,> 100 µM
O=C1CSC(c2cccc(Cl)c2)N1c1ccc(-c2ccc(-n3c(-c4ccccc4)nc4ccccc4c3=O)cc2)cc1 (stereo not given),> 100 µM,> 100 µM,> 100 µM,> 100 µM,84.1 µM,> 100 µM,> 100 µM,56.5 µM,> 100 µM,> 100 µM
O=C1CSC(c2ccc(Cl)cc2Cl)N1c1ccc(Oc2ccc(Cl)cc2)c(Cl)c1 (stereo not given),65.9 µM,98 µM,> 100 µM,> 100 µM,32.6 µM,86.7 µM,98.1 µM,49.4 µM,36.2 µM,> 100 µM
O=C(SCc1cccc2ccccc12)c1ccc(Cl)cc1,> 100 µM,> 100 µM,> 100 µM,> 100 µM,> 100 µM,> 100 µM,> 100 µM,> 100 µM,> 100 µM,> 100 µM
CCCCOP(C)(=O)C(NC(=O)OCC)(C(F)(F)F)C(F)(F)F (stereo not given),> 100 µM,> 100 µM,> 100 µM,> 100 µM,> 100 µM,> 100 µM,> 100 µM,> 100 µM,> 100 µM,> 100 µM
C#CC(O)/C=C/CCCCCCC#CC/C=C\CC#CCCCCCCCCC(O)C#C (stereo not given),24.5 µM,5.48 µM,> 55.8 µM,4.79 µM,1.41 µM,40.4 µM,9.08 µM,5.05 µM,7.77 µM,27 µM
Cc1cccc(CC(Cc2ccc(C)cc2C(=O)O)C(=O)O)c1 (stereo not given),> 100 µM,> 100 µM,> 100 µM,> 100 µM,> 100 µM,> 100 µM,> 100 µM,> 100 µM,> 100 µM,> 100 µM
